{"source": "patent US9248111B2", "about": "“Therapeutic approaches for treating parkinson's disease” (PHARNEXT, priority 2011, dated 2016)", "molecules": {"B1": {"name": "BDNF: Brain-derived neurotrophic factor, used as a positive control (protein, UniProt P23560 129-247, looked up)", "Neurotrophic factor BDNF": "HSDPARRGELSVCDSISEWVTAADKKTAVDMSGGTVTVLEKVPVSKGQLKQYFYETKCNPMGYTKEGCRGIDKRHWNSQCRTTQSYVRALTMDSKKRIGWRFIRIDTSCVCTLTIKRGR", "modifications": "Neurotrophic factor BDNF", "notes": "Brain-derived neurotrophic factor, used as a positive control"}}, "type_in_all_cases": "cell-based, rat", "key": {"[1]": {"test_system": "dopaminergic neuronal cells", "experiment": "6-OHDA injury on mesencephalic dopaminergic neurons, number of TH positive neurons", "procedure": "6-hydroxydopamine (6-OHDA) is a neurotoxic drug which selectively initiates neuronal degeneration of dopaminergic neurons by generating reactive oxygen species and mitochondrial respiratory dysfunction which are thought to mirror events occurring in Parkinsonian brain. 6-OHDA toxicity is commonly used in vitro and in vivo to study Parkinsonism.\nRat dopaminergic neurons were cultured as described by Schinelli et al.. Pregnant female rats of 15 days gestation were killed by cervical dislocation (Rats Wistar; Janvier) and the foetuses removed from the uterus. The embryonic midbrains were removed and placed in ice-cold medium of Leibovitz (L15; PanBiotech) containing 2% of Penicillin-Streptomycin (PS; PanBiotech) and 1% of bovine serum albumin (BSA; PanBiotech). Only the ventral portions of the mesencephalic flexure were used for the cell preparations as this is the region of the developing brain rich in dopaminergic neurons. The midbrains were dissociated by trypsinisation for 20 min at 37° C. (Trypsin EDTA 1×; PanBiotech). The reaction is stopped by the addition of Dulbecco's modified Eagle's medium (DMEM; PanBiotech) containing DNAase I grade II (0.1 mg/ml; PanBiotech) and 10% of foetal calf serum (FCS; Invitrogen). Cells were then mechanically dissociated by 3 passages through a 10 ml pipette and centrifuged at 180×g for 10 min at +4° C. on a layer of BSA (3.5%) in L15 medium. The supernatant was discarded and the cells of pellet were re-suspended in a defined culture medium consisting of Neurobasal (Invitrogen) supplemented with B27 (2%; Invitrogen), L-glutamine (2 mM; PanBiotech) and 2% of PS solution and 10 ng/ml of Brain-derived neurotrophic factor (BDNF, PanBiotech) and 1 ng/ml of Glial-Derived Neurotrophic Factor (GDNF, PanBiotech). Viable cells were counted in a Neubauer cytometer using the trypan blue exclusion test. The cells were seeded at a density of 40 000 cells/well in 96 well-plates (pre-coated with poly-L-lysine (Greiner)) and are cultured at 37° C. in a humidified air (95%)/CO2 (5%) atmosphere. Half of the medium was changed every 2 days with fresh medium. Five to six percent of the neuronal cell population were dopaminergic neurons.\nOn day 6 of culture, the medium was removed and fresh medium was added, without or with 6-OHDA at the following concentrations: 20 μM during 48 hours diluted in control medium. Test compounds were pre-incubated for 1 h before the 6-OHDA application during 48 hours.\nAfter 48 hours of intoxication with 6-OHDA, cells were fixed by a solution of 4% paraformaldehyde (Sigma) in PBS, pH=7.3 for 20 min at room temperature. The cells were washed again twice in PBS, and then permeabilized and non-specific sites were blocked with a solution of PBS containing 0.1% of saponin (Sigma) and 1% FCS for 15 min at room temperature. Then, cells were incubated with Monoclonal Anti-Tyrosine Hydroxylase antibody produced in mouse (TH, Sigma) at dilution of 1/1000 in PBS containing 1% FCS, 0.1% saponin, for 2 hours at room temperature.\nFor each condition, 2×10 pictures (representing ˜80% of total well area) per well were taken using InCell Analyzer™ 1000 (GE Healthcare) with 10× magnification. All images were taken in the same conditions. […]\nData are expressed in percentage of control conditions (no intoxication, no 6-OHDA=100%) in order to express the 6-OHDA injury. All values are expressed as mean+/−SEM (s.e. mean) of the 3 cultures (n=6 wells per condition per culture). […]"}, "[2]": {"test_system": "neuronal cortical cells", "experiment": "Glutamate toxicity assay, neurite network (neurofilament immunostaining) of primary cortical neurons", "conditions": "alone or combined", "procedure": "Glutamate toxicity is involved in the pathogenesis of Parkinson's disease. In this set of experiment, candidate compounds have been tested for their ability to prevent or reduce the toxic effects of glutamate toxicity on neuronal cells. The drugs are first tested individually, followed by assays of their combinatorial action.\nThe efficacy of drug combinations of the invention is assessed on primary cortical neuron cells.\nRat cortical neurons were cultured as described by Singer et al.. Briefly pregnant female rats of 15 days gestation were killed by cervical dislocation (Rats Wistar) and the foetuses were removed from the uterus. The cortex was removed and placed in ice-cold medium of Leibovitz (L15) containing 2% of Penicillin 10.000 U/ml and Streptomycin 10 mg/ml and 1% of bovine serum albumin (BSA). Cortices were dissociated by trypsin for 20 min at 37° C. (0.05%). The reaction was stopped by the addition of Dulbecco's modified Eagle's medium (DMEM) containing DNaseI grade II and 10% of foetal calf serum (FCS). Cells were then mechanically dissociated by 3 serial passages through a 10 ml pipette and centrifuged at 515 g for 10 min at +4° C. The supernatant was discarded and the pellet of cells was re-suspended in a defined culture medium consisting of Neurobasal supplemented with B27 (2%), L-glutamine (0.2 mM), 2% of PS solution and 10 ng/ml of BDNF. Viable cells were counted in a Neubauer cytometer using the trypan blue exclusion test. The cells were seeded at a density of 30 000 cells/well in 96 well-plates (wells were pre-coated with poly-L-lysine (10 μg/ml)) and were cultured at +37° C. in a humidified air (95%)/CO2 (5%) atmosphere.\nAfter 12 days of neuron culture, drugs of the candidate combinations are solved in culture medium (+0.1% DMSO). Candidate combinations are then pre-incubated with neurons for 1 hour before the glutamate injury. One hour after incubation with, glutamate is added for 20 min, to a final concentration of 40 μM, in presence of candidate combinations, in order to avoid further drug dilutions. At the end of the incubation, medium is changed with medium with candidate combination but without glutamate. The culture is fixed 24 hours after glutamate injury. MK801 (dizocilpinehydrogen maleate, 77086-22-7-20 μM) is used as a positive control.\nAfter permeabilization with saponin (Sigma), cells are blocked for 2 h with PBS containing 10% goat serum, then the cells are incubated with mouse monoclonal primary antibody against Neurofilament antibody (NF, Sigma).\nNuclei of cells are labeled by a fluorescent marker (Hoechst solution, SIGMA), and neurite network quantified. Six wells per condition are used to assess neuronal survival in 3 different cultures."}, "[3]": {"test_system": "cortical neuronal cells", "experiment": "Oxygen and glucose deprivation assay (in vitro model of ischemia), neurite network by MAP2", "conditions": "alone or combined", "procedure": "B—Protective Effect Against Ischemia/Hypoxia Induced Neuronal Cell Death Rat Neuronal Cortical Cells Preparation\nCells are prepared as previously.\nThe neuroprotective effect of compounds is assessed by quantification of the neurite network using MAP2 antibody. Riluzole, a neuroprotective drug, (Riluteck®, 5 μM) is used as positive control.\nAfter 10 days of neuron culture, candidate drugs are solved in culture medium (+0.1% DMSO) and then pre-incubated with neurons for 1 hour before the oxygen and glucose deprivation. One hour after candidate drug incubation, the medium is removed and fresh medium without glucose is added. This medium is composed by DMEM without glucose (Invitrogen) supplemented with 2% B27, 0.2 mM L-glutamine, 1% PS solution, 10 ng/ml of BDNF. The cells are transferred into an anaerobic incubator with 95% N2 and 5% CO2 at 37° C.\nAfter 2 hours, 25 mM of D-Glucose will be added in culture medium and cells are transferred in classic incubator with 95% air/5% CO2 at 37° C. After 24 hours of oxygen glucose reperfusion, cells are fixed by a cold solution of alcohol/acetic acid during 5 minutes.\nAfter permeabilization with saponin (Sigma), cells are blocked for 2 hours with PBS containing 10% goat serum, then the cells are incubated with mouse monoclonal primary antibody against MAP2 (MAP2, Sigma).\nNuclei of cells are labelled by a fluorescent marker (Hoechst solution, SIGMA). Six wells per condition are used to assess neuronal survival in 3 different cultures.\nFor each condition 2×10 pictures per well are taken and analyzed using InCell Analyzer TM 1000 (GE Healthcare) with 20× magnification."}, "[4]": {"conditions": "FIG. 12A: baclofen 32 nM alone, acamprosate 10 pM alone"}, "[5]": {"conditions": "FIG. 12B: baclofen 32 nM alone, acamprosate 4 pM alone"}, "[6]": {"conditions": "FIG. 3: baclofen 400 nM, acamprosate 1.6 nM"}, "[7]": {"conditions": "FIG. 4: baclofen 80 nM, acamprosate 0.32 nM"}, "[8]": {"conditions": "FIG. 1: cinacalcet 64 pM, mexiletine 25.6 pM"}, "[9]": {"conditions": "FIG. 6: cinacalcet 64 pM, mexiletine 25.6 pM"}, "[10]": {"conditions": "FIG. 2: sulfisoxazole 6.8 nM, torasemide 400 nM"}, "[11]": {"conditions": "FIG. 5: sulfisoxazole 1.36 nM, torasemide 80 nM"}}, "data": [{"molecule": "CC(=O)NCCCS(=O)(=O)O", "note": "[acamprosate]", "values": [{"measurement": "protection from 6-OHDA injury, single drugs", "setting": "[1]; [4]", "result": "low effect"}, {"measurement": "protection from 6-OHDA injury, single drugs", "setting": "[1]; [5]", "result": "low effect"}, {"measurement": "prevention of glutamate intoxication", "setting": "[2]; [6]", "result": "no significant effect"}, {"measurement": "protection against ischemic injury", "setting": "[3]; [7]", "result": "no significant protection"}]}, {"molecule": "C[C@@H](NCCCc1cccc(C(F)(F)F)c1)c1cccc2ccccc12", "note": "[cinacalcet]", "values": [{"measurement": "prevention of glutamate intoxication", "setting": "[2]; [8]", "result": "no significant effect"}, {"measurement": "protection against ischemic injury", "setting": "[3]; [9]", "result": "No significant protection"}]}, {"molecule": "Cc1cccc(C)c1OCC(C)N", "note": "(centres unmarked) [mexiletine]", "values": [{"measurement": "prevention of glutamate intoxication", "setting": "[2]; [8]", "result": "no significant effect"}, {"measurement": "protection against ischemic injury", "setting": "[3]; [9]", "result": "No significant protection"}]}, {"molecule": "Cc1cccc(Nc2ccncc2S(=O)(=O)NC(=O)NC(C)C)c1", "note": "[torasemide]", "values": [{"measurement": "prevention of glutamate intoxication", "setting": "[2]; [10]", "result": "no significant effect"}, {"measurement": "protection against ischemic injury", "setting": "[3]; [11]", "result": "no significant protection"}]}, {"molecule": "NCC(CC(=O)O)c1ccc(Cl)cc1", "note": "(centres unmarked) [baclofen]", "values": [{"measurement": "protection from 6-OHDA injury, single drugs", "setting": "[1]; [4]", "result": "low effect"}, {"measurement": "protection from 6-OHDA injury, single drugs", "setting": "[1]; [5]", "result": "low effect"}, {"measurement": "prevention of glutamate intoxication", "setting": "[2]; [6]", "result": "no significant effect"}, {"measurement": "protection against ischemic injury", "setting": "[3]; [7]", "result": "no significant protection"}]}, {"molecule": "Cc1noc(NS(=O)(=O)c2ccc(N)cc2)c1C", "note": "[sulfisoxazole]", "values": [{"measurement": "prevention of glutamate intoxication", "setting": "[2]; [10]", "result": "no significant effect"}, {"measurement": "protection against ischemic injury", "setting": "[3]; [11]", "result": "no significant protection"}]}, {"molecule": "B1", "values": [{"measurement": "protection of dopaminergic neurons from 6-OHDA injury", "setting": "[1]; 1.85 nM, one hour pre-treatment, positive control", "result": "significantly protected"}]}]}
